In patent US20220332750A1, “ADENOSINE COMPOUND, ITS PHARMACEUTICALLY ACCEPTABLE SALT OR ITS STEREOISOMER AND USE THEREOF” (ACADEMY OF MILITARY MEDICAL SCIENCES, priority 2019, published 2022):

Assays:
[1] = biological target: T1, (human) A2A adenosine receptor (Homo sapiens, UniProt P29274); test: Radioligand binding test ([3H]-CGS21680 displacement); conditions: for Ki: calculated from IC50 by Cheng-Prusoff equation, [S] 25 nM, Km 22 nM; for IC50: hA2A HEK-293 cell membrane, [3H]-CGS21680 25 nM, 25° C. 90 minutes
T1 construct: purchased PerkinElmer Research Products (Boston, Mass.); host or cells: HEK-293 cell membranes, stably transfected
T1 sequence (P29274 whole entry): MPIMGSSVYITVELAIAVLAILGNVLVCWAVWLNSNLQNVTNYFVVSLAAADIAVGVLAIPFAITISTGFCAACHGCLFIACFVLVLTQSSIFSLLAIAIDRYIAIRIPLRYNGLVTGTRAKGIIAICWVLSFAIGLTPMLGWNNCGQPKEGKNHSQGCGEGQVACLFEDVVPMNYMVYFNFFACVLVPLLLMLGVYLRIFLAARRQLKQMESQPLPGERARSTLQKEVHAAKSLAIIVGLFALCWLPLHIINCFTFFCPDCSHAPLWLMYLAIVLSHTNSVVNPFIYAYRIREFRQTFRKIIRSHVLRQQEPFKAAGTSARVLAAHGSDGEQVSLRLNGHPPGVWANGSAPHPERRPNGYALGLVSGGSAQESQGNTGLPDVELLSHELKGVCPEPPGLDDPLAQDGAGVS
Description: [3H]-CGS21680 (2-[p-(2-carboxyethyl)phenylethylamino]-5′-N-ethylcarboxamido-adenosine, [carboxy-1-ethyl-3H(N)]—; 250 μCi): purchased from PerkinElmer Research Products (Boston, Mass.);
The cell membrane stably transfected with (human) A2A adenosine receptor was prepared in HEK-293 cells, and the cell membrane was obtained from PerkinElmer Research Products (Boston, Mass.);
CGS 21680 (2-[p-(2-carboxyethyl)phenylethylamino]-5′-N-ethylcarboxamidoadenosine) was purchased from Selleck (Shanghai, CN);
The A2A adenosine receptors used were all expressed in the cell membrane. Each compound was continuously diluted 3 times with DMSO (Solarbio, D8371-250 ml) to generate compound source plates with 10 different concentrations (10 μM, 3.3 μM, 1.1 μM, 0.37 μM, 0.12 μM, 0.0412 μM, 0.0137 μM, 0.0046 μM, 0.0015 μM, 0.0005 μM), 250 nL of compounds were added to 384-well Opti-plate, sealed with parafilm; 1 mL of assay buffer (containing 50 mM Tris-HCl, pH 7.4, 10 mM MgCl2, 1 mM EDTA, 1 μg/mL adenosine deaminase) was added to 20 U hA2A HEK-293 cell membrane for dilution, 0.75 μCi [3H]-CGS21680 (final 25 nM) was added to the diluted cell membrane and mixed well; 50 μL of the prepared cell membrane dilution was transferred to the 384-well Opti-plate containing fresh compounds and incubated at 25° C. for 90 minutes; 100 μL of 0.5% polyethyleneimine solution (PEI) was added to UNIFILTER-96 GF/B filter plate, and soaked at 4° C. for 90 minutes, then the UNIFILTER-96 GF/B filter plate was washed twice with 500 μL of washing buffer per well (washing buffer contained 50 mM Tris-HCl pH 7.4, 154 mM NaCl) which was transferred by Cell Harvester; then, the mixture system in the Opti-plate was transferred to the cleaned UNIFILTER-96 GF/B filter plate, and then the UNIFILTER-96 GF/B filter plate was washed 9 times with 500 μL of washing buffer per well (washing buffer contained 50 mM Tris-HCl, pH 7.4, 154 mM NaCl), and incubated for 3 minutes in a 37° C. incubator; 40 μL of ULTIMA GOLD scintillation fluid (Perkin Elmer, Cat #77-16061) was added to each well, MicroBeta liquid scintillation counter (PerkinElmer) was used to read CPM (count per minute) value. The specific binding percentage of [3H]CGS21680 was calculated according to the CPM value, % specific binding of [3H]CGS21680=(CPMsample−CPMLow Control)/(CPMHigh Control−CPMLow Control)*100, wherein High Control was 0.5% DMSO, Low Control was 100 μM CGS21680. According to the compound concentration and the specific binding percentage of [3H]CGS21680, curve fitting was performed to calculate IC50 value.
The binding inhibition constant (Ki) value was calculated from the IC50 value according to the Cheng-Prusoff equation, Ki=IC50/(1+[S]/Km), wherein [S] was radioligand concentration (25 nM), and Km was human A2AAR dissociation constant of [3H]CGS21680 (22 nM).

[2] = biological target: human adenosine receptor A2A (hADORA2A-HEK293 cells) (Homo sapiens, UniProt P29274); test: cAMP test of A2A adenosine receptor; format: cell-based; conditions: LANCE Ultra cAMP kit
Sequence of human adenosine receptor A2A (hADORA2A-HEK293 cells) (P29274 whole entry): as above
Description: DMEM/F12, G418, Penicillin-Streptomycin, Versene solution, HEPES, Hank's buffer saline aqueous solution, PBS (pH 7.4, 1×, sterile), FBS, 7.5% BSA stabilizer, Rolipram, NECA, were purchased from Gibico, Hyclone and Sigma, respectively;
LANCE® Ultra cAMP kit (containing Eu-cAMP tracer, Ulight-anti-cAMP reagent, cAMP detection buffer) and hADORA2A-HEK293 cells were purchased from PerkinElmer Research Products (Boston, Mass.);
The cells stably expressing human adenosine receptor A2A (hADORA2A-HEK293 cells) were cultured in DMEM/F12 medium containing 10% FBS, 1× Penicillin-Streptomycin and 400 μg/ml G418 in the environment of 37° C. and 5% CO2. Before the experiment, the cells were digested with Versene solution. […] EnVison microplate reader (EnVision multimode plate reader, PerkinElmer) was used to determine the level of cyclic adenosine monophosphate in the final solution (λex=320 nm, λem=665 nm & 615 nm). The EC50 (nM) value that stimulated the production level of cyclic adenosine monophosphate when the test compound interacted with the A2A adenosine receptor was calculated. The A2A receptor agonist titer of the compound was expressed as the EC50 (nM) value that stimulated the production level of cyclic adenosine monophosphate when the compound interacted with the A2A adenosine receptor. […]

| melting point | Ki [1] | IC50 [1] | EC50 [2] | SMILES |
| --- | --- | --- | --- | --- |
| 230 °C | 778 nM | 1660 nM | – | Nc1nc(-c2ccc(NC(=O)Nc3cccnc3)cc2)nc2c1ncn2[C@@H]1O[C@H](CO)[C@@H](O)[C@H]1O [Compound 1, 1-{4-{6-amino-9-[(2R,3R,4S,5R)-3,4-dihydroxy-5-(hydroxymethyl)tetrahydrofuran-2-yl]-9H-purin-2-yl}phenyl}-3-(pyridin-3-yl)urea] |
| 174 °C | 15.9 nM | 34 nM | – | Nc1nc(-c2ccc(NC(=O)NC3CC3)cc2)nc2c1ncn2[C@@H]1O[C@H](CO)[C@@H](O)[C@H]1O [Compound 3, 1-{4-{6-amino-9-[(2R,3R,4S,5R)-3,4-dihydroxy-5-(hydroxymethyl)tetrahydrofuran-2-yl]-9H-purin-2-yl}phenyl}-3-cyclopropylurea] |
| 174 °C | 16.4 nM | 35 nM | 228 nM | Nc1nc(-c2ccc(NC(=O)Nc3ccc(CO)cc3)cc2)nc2c1ncn2[C@@H]1O[C@H](CO)[C@@H](O)[C@H]1O [Compound 2, 1-{4-{6-amino-9-[(2R,3R,4S,5R)-3,4-dihydroxy-5-(hydroxymethyl)tetrahydrofuran-2-yl]-9H-purin-2-yl}phenyl}-3-[4-(hydroxymethyl)phenyl]urea] |
